Test results as given in ChEMBL document CHEMBL2074127, “P-glycoprotein in the blood-brain barrier of mice influences the brain penetration and pharmacological activity of many drugs” (J Clin Invest, 1996).

Key:
[1] = biological target: T1, ATP-dependent translocase ABCB1 (Mus musculus, UniProt P21447); assay: TP_TRANSPORTER: increase in brain concentration in mdr1a(-/-) mouse; format: functional, organism-based; conditions: in vivo
[2] = biological target: ATP-dependent translocase ABCB1 (Homo sapiens, UniProt P08183); assay: TP_TRANSPORTER: transepithelial transport (basal to apical) in MDR1-expressing LLC-PK1 cells; format: functional, cell-based; conditions: pig
[3] = biological target: T1, ATP-dependent translocase ABCB1; assay: TP_TRANSPORTER: transepithelial transport (basal to apical) in mdr1a-expressing LLC-PK1 cell; format: functional, cell-based; conditions: pig

T1 sequence (P21447 whole entry): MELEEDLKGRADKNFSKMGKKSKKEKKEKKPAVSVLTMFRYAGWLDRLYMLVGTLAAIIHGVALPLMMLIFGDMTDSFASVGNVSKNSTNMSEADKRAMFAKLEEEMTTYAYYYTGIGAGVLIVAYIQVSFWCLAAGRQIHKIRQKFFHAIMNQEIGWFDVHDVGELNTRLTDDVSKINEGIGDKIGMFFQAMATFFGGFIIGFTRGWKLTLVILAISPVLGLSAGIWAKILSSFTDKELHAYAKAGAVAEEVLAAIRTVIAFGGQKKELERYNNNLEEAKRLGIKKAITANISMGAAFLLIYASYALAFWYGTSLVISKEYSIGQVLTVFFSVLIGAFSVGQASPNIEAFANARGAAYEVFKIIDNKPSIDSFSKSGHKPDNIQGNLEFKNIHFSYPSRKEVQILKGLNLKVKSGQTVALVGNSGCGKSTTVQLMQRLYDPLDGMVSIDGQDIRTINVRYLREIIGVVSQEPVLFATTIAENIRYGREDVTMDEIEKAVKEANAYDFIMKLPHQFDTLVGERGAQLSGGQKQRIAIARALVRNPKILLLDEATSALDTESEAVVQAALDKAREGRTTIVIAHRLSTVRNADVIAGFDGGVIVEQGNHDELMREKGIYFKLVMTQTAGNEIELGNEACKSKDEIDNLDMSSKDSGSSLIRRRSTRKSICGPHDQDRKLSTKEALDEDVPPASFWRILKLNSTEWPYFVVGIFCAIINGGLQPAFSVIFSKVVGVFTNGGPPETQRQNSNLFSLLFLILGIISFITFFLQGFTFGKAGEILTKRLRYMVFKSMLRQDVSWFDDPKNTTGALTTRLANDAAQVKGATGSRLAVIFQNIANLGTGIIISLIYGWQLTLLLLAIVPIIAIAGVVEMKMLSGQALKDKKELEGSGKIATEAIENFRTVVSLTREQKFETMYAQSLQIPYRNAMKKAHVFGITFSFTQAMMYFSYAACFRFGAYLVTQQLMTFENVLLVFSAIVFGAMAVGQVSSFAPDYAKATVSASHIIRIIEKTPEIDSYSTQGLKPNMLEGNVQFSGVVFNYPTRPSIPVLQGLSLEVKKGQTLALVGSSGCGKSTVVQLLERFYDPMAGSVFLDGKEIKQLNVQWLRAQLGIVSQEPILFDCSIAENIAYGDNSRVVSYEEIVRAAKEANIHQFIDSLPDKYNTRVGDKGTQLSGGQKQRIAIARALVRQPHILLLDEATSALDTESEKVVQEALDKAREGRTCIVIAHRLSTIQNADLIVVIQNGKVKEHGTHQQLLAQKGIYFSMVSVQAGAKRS
ATP-dependent translocase ABCB1 (Homo sapiens, UniProt P08183), sequence (P08183 whole entry): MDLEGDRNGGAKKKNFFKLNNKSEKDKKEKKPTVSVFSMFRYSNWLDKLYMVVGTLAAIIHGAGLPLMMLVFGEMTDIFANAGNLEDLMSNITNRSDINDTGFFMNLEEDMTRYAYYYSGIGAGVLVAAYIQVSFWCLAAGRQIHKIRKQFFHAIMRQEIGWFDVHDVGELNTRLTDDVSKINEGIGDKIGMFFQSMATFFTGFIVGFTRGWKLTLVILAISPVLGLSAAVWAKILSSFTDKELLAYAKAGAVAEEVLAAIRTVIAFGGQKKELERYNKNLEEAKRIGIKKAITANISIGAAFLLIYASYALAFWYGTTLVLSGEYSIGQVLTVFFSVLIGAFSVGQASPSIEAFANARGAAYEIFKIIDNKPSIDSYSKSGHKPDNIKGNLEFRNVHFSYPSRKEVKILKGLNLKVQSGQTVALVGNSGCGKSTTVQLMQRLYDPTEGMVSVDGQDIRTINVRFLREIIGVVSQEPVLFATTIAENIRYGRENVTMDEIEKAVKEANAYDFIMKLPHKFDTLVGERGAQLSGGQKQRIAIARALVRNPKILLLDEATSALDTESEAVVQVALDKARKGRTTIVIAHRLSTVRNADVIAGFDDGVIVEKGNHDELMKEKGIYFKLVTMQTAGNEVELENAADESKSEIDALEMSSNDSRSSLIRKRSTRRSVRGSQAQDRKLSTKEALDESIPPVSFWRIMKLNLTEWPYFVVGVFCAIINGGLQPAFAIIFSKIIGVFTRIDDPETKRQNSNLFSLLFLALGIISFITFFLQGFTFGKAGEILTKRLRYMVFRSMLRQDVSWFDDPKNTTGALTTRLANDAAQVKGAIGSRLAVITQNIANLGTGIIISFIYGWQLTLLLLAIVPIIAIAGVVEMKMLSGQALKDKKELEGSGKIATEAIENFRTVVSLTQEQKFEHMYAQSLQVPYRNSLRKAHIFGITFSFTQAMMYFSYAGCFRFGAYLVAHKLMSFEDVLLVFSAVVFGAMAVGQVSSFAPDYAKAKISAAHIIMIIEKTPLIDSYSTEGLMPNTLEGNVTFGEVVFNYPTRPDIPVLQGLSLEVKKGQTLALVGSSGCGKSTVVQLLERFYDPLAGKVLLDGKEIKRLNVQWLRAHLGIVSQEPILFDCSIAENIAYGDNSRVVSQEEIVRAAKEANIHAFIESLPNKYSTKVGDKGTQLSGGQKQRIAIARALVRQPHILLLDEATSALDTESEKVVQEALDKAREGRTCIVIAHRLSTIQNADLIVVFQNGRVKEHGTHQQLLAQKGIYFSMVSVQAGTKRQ

Activity [3] | Structure (SMILES) | Activity [1] | Activity [2]
substrate [+] | Cc1nccn1CC1CCc2c(c3ccccc3n2C)C1=O (stereo unspecified) [ONDANSETRON] | substrate [+] | –
substrate [+] | O=C1NC(=O)C(c2ccccc2)(c2ccccc2)N1 [PHENYTOIN] | – | –

Structure (SMILES) | Activity [3] | Activity [1] | Activity [2]
CN(C)C(=O)C(CCN1CCC(O)(c2ccc(Cl)cc2)CC1)(c1ccccc1)c1ccccc1 [LOPERAMIDE] | substrate [+] | substrate [+] | substrate [+]
